Columns and labels:
Assay type in all cases: physicochemical
[1] = absorption spectra measured in solution (λmax, ε, shift Δλmax after thermal cyclization); design: λmax: unit: nm (local absorption maximum, 350–470 nm range); Δλmax: unit: nm; negative = hypsochromic shift; settings: for absorption shift after cyclization Δλmax: after thermal cyclization, negative = hypsochromic; for Δλmax: shift after thermal cyclization; for λmax: solvent not given
Description: Preference is given to dyes in which the shift in the absorption maximum induced by thermal cyclization, Δλmax, is 25 nm or more, preferably ≧35 nm, in particular ≧45 nm. If a preferably hypsochromic shift occurs, then Δλmax is negative. For the purposes of the invention, the absorption maximum is the local maximum in the range from 350 to 470 nm; it is not necessarily the absolute maximum in the UV/VIS spectrum in the range from 190 to 800 nm.
The light-absorbent compounds preferably have a molar extinction coefficient ε of >20 000 l/mol cm, preferably >30 000 l/mol cm, particularly preferably >40 000 l/mol cm, very particularly preferably >50 000 l/mol cm, at the absorption maximum λmax.
The absorption spectra are, for example, measured in solution.

[2] = index of refraction of spin-coated dye film over temperature cycle
Procedure: (§1) A 2% strength by weight solution of the dye in 2,2,3,3-tetrafluoropropanol was prepared at room temperature. This solution was applied by means of spin coating to a fused silica substrate. The resulting thickness of the dye film was about 150 nm. This specimen was heated from 50° C. to 133° C. in a stream of helium at a mean heating rate of 3 K/min and subsequently cooled to 81° C. at a mean cooling rate of 1.4 K/min. During the heating and cooling phases, transmission spectra of the specimen in the wavelength range from 200 nm to 1700 nm were recorded. The change in the optical properties resulting from the ring-closure reaction can be observed by looking at the transmission spectra at different temperatures.
The absorption band in the region of 450 nm obviously disappears virtually completely and leads to a change in the absorption properties which can be utilized in the wavelength range from 400 to 500 nm for the optical storage and reproduction of data, for example when a laser beam having an appropriate pulse duration and pulse energy heats the dye layer to above 133° C. Furthermore, each absorption also produces a dispersion of the index of refraction over the wavelength. This leads, in particular on the flanks of the absorption bands, to indices of refraction which are lower (short wavelength flank) or higher (long wavelength flank) than 1.4-1.6, which represents the usual range for colourless organic materials. For example, the index of refraction of the dye at 405 nm is 1.17 at the beginning of the temperature cycle and that at 515 nm is […]. After the temperature cycle, when the absorption band has disappeared virtually completely, the decolourized dye has an index of refraction in the range from 1.4 to 1.6 in the visible spectrum. This change in the index of refraction can likewise be utilized for the optical storage and reproduction of data, for example when a laser beam having an appropriate pulse duration and pulse energy heats the dye layer to above 133° C. […]

[3] = film formed by the dye (spin coating)
Description: Apart from the abovementioned optical properties, the writeable information layer comprising light-absorbent organic substances has to have a substantially amorphous morphology to keep the noise signal during writing or reading as small as possible. For this reason, it is particularly preferred that crystallization of the light-absorbent substances be prevented in the application of the substances by spin coating from a solution, by vapour deposition and/or sublimation during subsequent covering with metallic or dielectric layers under reduced pressure.
as §1

[4] = cyclization temperature Tcyc by Differential Thermal Analysis (DTA); settings: for cyclization temperature Tcyc: determined using DTA; for Tcyc: table, DTA
Procedure: The cyclization temperature Tcyc is determined, for example, by means of Differential Thermal Analysis DTA. In the case of the preferred exothermic cyclization, it corresponds to the maximum of the rearrangement signal. The heating rate in the DTA measurements is, for example, 10° C. per minute. Under these conditions, the width at half height of the rearrangement signal is preferably less than 10° C., particularly preferably less than 7° C., very particularly preferably less than 5° C. For the purposes of the invention, the width at half height is the width of the signal at a height halfway between the base and the apex.
cyclization temperature Tcyc: 123° C. (determined using DTA, see description. This also applies to the other examples).

[5] = solubility in TFP (2,2,3,3-tetrafluoropropanol)
[6] = molar extinction coefficient at λmax

Structure (SMILES)	absorption shift after cyclization Δλmax [1] [nm]	λmax (methanol) [1] [nm]	ε [1, 6]	index of refraction ([2]; after the temperature cycle (50 to 133° C.), visible spectrum, decolourized dye)	index of refraction ([2]; at 405 nm, beginning of the temperature cycle, about 150 nm film on fused silica)	index of refraction ([2]; at 515 nm, beginning of the temperature cycle)	film [3]	cyclization temperature Tcyc [4] [°C]	solubility [5] [%]	ε ([1]; table)	Δλmax ([1]; table)	λmax ([1]; table)	Tcyc [4] [°C]
CCOC(=O)/C(C#N)=C/C=C1\NCCc2cc(OC)c(OC)cc21 [Example 1]	−49	447	47 560 l/mol cm	1.4-1.6	1.17	2.17	glass-like film	123	> 2	–	–	–	–
CCc1ccc2c(NC(C)C)c(/C=C\C(=O)OC)c(=O)oc2c1 [Example 3]	−20	359	20 700 l/mol cm	–	–	–	glass-like film	206	1	–	–	–	–
CCCCNC1=C(/C=C(/C#N)C(=O)OCC)CCC1 [Example 4]	−72	441	36 910 l/mol cm	–	–	–	glass-like film	198	> 2	–	–	–	–
CCOC(=O)/C(C#N)=C/C=C1\NCCc2ccccc21 [Example 5]	–	–	–	–	–	–	–	–	–	53 320	−46	440	124
CCC1Cc2cc(OC)ccc2/C(=C/C=C(\C#N)C(=O)OCCOC)N1 (centres unmarked) [Example 8]	–	–	–	–	–	–	–	–	–	37 520	−50	444	212
CCOC(=O)/C(C#N)=C/C(C#N)=C1\NC(CC)Cc2cc(N(C)C)ccc21 (centres unmarked) [Example 9]	–	–	–	–	–	–	–	–	–	63 160	−53	452	207
Cc1ccc(N/C=C\c2c(C#N)c(=O)oc3ccccc23)cc1C [Example 11]	–	–	–	–	–	–	–	–	–	30 820	>|100|*	467	157
CCc1ccc(N/C=C(/Br)c2c(C#N)c(=O)[nH]c3ccc(CC)cc23)cc1 [Example 12]	–	–	–	–	–	–	–	–	–	32 140	>|100|*	463	161
CCCCN/C=C\c1c(C(=O)OC(C)C)c(=O)oc2cc(OC)c(OC)cc12 [Example 13]	–	–	–	–	–	–	–	–	–	24 580	−50	422	81
Cc1ccc(S(=O)(=O)OCc2c(/C=C\NC3CCCCC3)c3ccccc3oc2=O)cc1 [Example 14]	–	–	–	–	–	–	–	–	–	21 750	−15	368	175
N#Cc1c(/C=C\Nc2ccccc2)c2ccc(-n3nccn3)cc2oc1=O [Example 15]	–	–	–	–	–	–	–	–	–	38 540	>|100|*	468	146
COc1ccc(Nc2c(C=C(C#N)C#N)c(=O)oc3ccccc23)cc1OC [Example 16]	–	–	–	–	–	–	–	–	–	26 670	−38	386	167
CCOC(=O)/C(C#N)=C/C1=C(Nc2ccc(OC)cc2)CCCC1 [Example 17]	–	–	–	–	–	–	–	–	–	33 200	−65	445	176
CCCCNC1=C(C=C(C#N)C#N)CCC1 [Example 18]	–	–	–	–	–	–	–	–	–	37 840	−70	440	174
